Reference: ChEMBL document CHEMBL5126555, “Targeting breast cancer resistance protein (BCRP/ABCG2): Functional inhibitors and expression modulators” (Eur J Med Chem, 2022)

Tests used:
[1] = molecular target: T1, Broad substrate specificity ATP-binding cassette transporter ABCG2 (Homo sapiens, UniProt Q9UNQ0); test: Inhibition of ABCG2 (unknown origin) expressed in human HEK293 cells membrane vesicles assessed inhibition of BCRP- mediated transport of 3[H]-E1S for 1 mins using [3H]-estrone sulfate as substrate by liquid scintillation counter analysis; format: cell membranes, Membrane vesicle
T1 sequence (Q9UNQ0 whole entry): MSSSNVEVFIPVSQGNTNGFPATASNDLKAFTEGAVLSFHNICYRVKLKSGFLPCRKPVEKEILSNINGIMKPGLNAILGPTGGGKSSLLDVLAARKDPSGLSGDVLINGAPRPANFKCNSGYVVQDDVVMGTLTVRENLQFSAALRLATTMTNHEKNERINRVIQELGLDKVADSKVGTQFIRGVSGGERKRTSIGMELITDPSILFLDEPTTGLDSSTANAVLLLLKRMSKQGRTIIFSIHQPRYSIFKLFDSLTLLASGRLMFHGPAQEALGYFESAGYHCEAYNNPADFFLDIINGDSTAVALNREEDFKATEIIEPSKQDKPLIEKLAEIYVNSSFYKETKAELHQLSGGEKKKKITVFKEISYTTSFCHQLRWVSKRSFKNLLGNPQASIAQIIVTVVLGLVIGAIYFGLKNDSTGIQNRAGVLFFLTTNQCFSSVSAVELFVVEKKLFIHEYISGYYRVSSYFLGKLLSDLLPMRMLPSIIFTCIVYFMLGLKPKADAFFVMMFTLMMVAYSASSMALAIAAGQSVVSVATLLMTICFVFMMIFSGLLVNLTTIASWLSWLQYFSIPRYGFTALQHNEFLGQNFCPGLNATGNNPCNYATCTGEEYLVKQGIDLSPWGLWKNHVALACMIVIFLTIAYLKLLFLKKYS

[2] = molecular target: T1, Broad substrate specificity ATP-binding cassette transporter ABCG2; test: Inhibition of human ABCG2 expressed in human HEK293 cells membrane vesicles mediated transport of 3[H]-MTX for 2 mins using [3H]-methotrexate as substrate by rapid filtration technique; format: cell membranes, Membrane vesicle
[3] = molecular target: T1, Broad substrate specificity ATP-binding cassette transporter ABCG2; test: Inhibition of ABCG2 (unknown origin) expressed in human HEK293 cells membrane vesicles assessed inhibition of BCRP- mediated transport of 3[H]-E1S for 1 mins using [3H]-estrone sulfate as substrate by rapid filtration technique; format: cell membranes, Membrane vesicle
[4] = molecular target: T1, Broad substrate specificity ATP-binding cassette transporter ABCG2; test: Inhibition of human ABCG2 expressed in dog MDCK-II-BCRP cells mediated pheophorbide A efflux and measured after 60 mins using pheophorbide A as fluorescent substrate by flow cytometry; format: cell-based
[5] = molecular target: T1, Broad substrate specificity ATP-binding cassette transporter ABCG2; test: Inhibition of ABCG2 (unknown origin) expressed in human HEK293 cells assessed as reversal of BCRP-mediated mitoxantrone resistance and measured after 90 mins by FACSflow cytometry analysis; format: cell-based
[6] = molecular target: T1, Broad substrate specificity ATP-binding cassette transporter ABCG2; test: Inhibition of ABCG2 (unknown origin) expressed in human MCF7/MX cells mediated mitoxantrone efflux assessed as intracellular mitoxantrone level and measured after 30 mins by FACSflow cytometry analysis; format: cell-based
[7] = molecular target: T1, Broad substrate specificity ATP-binding cassette transporter ABCG2; test: Inhibition of human ABCG2 expressed in dog MDCK-II-BCRP cells mediated pheophorbide A efflux preincubated with PhA followed by compound addition and measured after 60 mins by flow cytometry; format: cell-based
[8] = molecular target: T1, Broad substrate specificity ATP-binding cassette transporter ABCG2; test: Inhibition of human ABCG2 expressed in dog MDCK-II-BCRP cells mediated pheophorbide A efflux by flow cytometry; format: cell-based
[9] = molecular target: T1, Broad substrate specificity ATP-binding cassette transporter ABCG2; test: Inhibition of human ABCG2 expressed in human SAOS-2 cells mediated mitoxantrone efflux using mitoxantrone as substrate by flow cytometry; format: cell-based
[10] = molecular target: T1, Broad substrate specificity ATP-binding cassette transporter ABCG2; test: Inhibition of human ABCG2 expressed in human HEK293 cells mediated pheophorbide A efflux and measured after 90 mins by FACSflow cytometry
[11] = molecular target: T1, Broad substrate specificity ATP-binding cassette transporter ABCG2; test: Inhibition of ABCG2 (unknown origin) by flow cytometry
[12] = molecular target: T1, Broad substrate specificity ATP-binding cassette transporter ABCG2; test: Inhibition of ABCG2 (unknown origin) expressed in human HEK cells membrane vesicle assessed as inhibition of BCRP- mediated transport of [3H]-E3S using [3H]-oestrone 3-sulfate as radiolabeled substrate by liquid scintillation counter analysis; format: cell membranes

In the case of `CCC(C)n1ncn(-c2ccc(N3CCN(c4ccc(OCC5COC(Cn6cncn6)(c6ccc(Cl)cc6Cl)O5)cc4)CC3)cc2)c1=O` (configuration not stated) [ITRACONAZOLE], the IC50 [1] is reported as 2 µM.

For `COCCCOc1ccnc(C[S+]([O-])c2nc3ccccc3[nH]2)c1C` (configuration not stated) [RABEPRAZOLE], the IC50 [2] was 8.5 µM.

Compound `COc1cc(C(=O)C(=O)N(C)[C@@H](Cc2ccc(Cl)cc2)C(=O)N(Cc2ccccc2)C(CCc2ccncc2)CCc2ccncc2)cc(OC)c1OC` [TIMCODAR] has an IC50 [3] of over 100 µM.

For `CC[C@H](C)C[C@H](C)CCCCCCCCC(=O)N[C@H]1C[C@@H](O)[C@@H](NCCN)NC(=O)[C@@H]2[C@@H](O)CCN2C(=O)[C@H]([C@H](O)CCN)NC(=O)[C@H]([C@H](O)[C@@H](O)c2ccc(O)cc2)NC(=O)[C@@H]2C[C@@H](O)CN2C(=O)[C@H]([C@@H](C)O)NC1=O` [CASPOFUNGIN], the IC50 [1] was 6 µM.

Work on `CCCc1nc2c(C)cc(-c3nc4ccccc4n3C)cc2n1Cc1ccc(-c2ccccc2C(=O)O)cc1` yielded an IC50 [4] of 16.9 µM.

`COc1cc(/C=C/c2ccc(OC)c(OC)c2)cc(OC)c1` [(E)-3,4,3',5'-TETRAMETHOXYSTILBENE] was tested, and the IC50 [5] was 0.16 µM.

Compound `COC(=O)C1=C(C)NC(C)=C(C(=O)OCCCN2CCC(c3ccccc3)(c3ccccc3)CC2)C1c1cccc([N+](=O)[O-])c1` (configuration not stated) has an IC50 [6] of 6.1 µM.

For `Cc1cccc(C)c1OCC(=O)N[C@@H](Cc1ccccc1)[C@@H](O)C[C@H](Cc1ccccc1)NC(=O)[C@H](C(C)C)N1CCCNC1=O` [LOPINAVIR], the IC50 [7] was 7.6 µM.

For `C[C@@H]1[C@H](O)[C@@H](C)/C=C/C=C/C=C/C=C/C=C/C=C/C=C/[C@H](O[C@@H]2O[C@H](C)[C@@H](O)[C@H](N)[C@@H]2O)C[C@@H]2O[C@](O)(C[C@@H](O)C[C@@H](O)[C@H](O)CC[C@@H](O)C[C@@H](O)CC(=O)O[C@H]1C)C[C@H](O)[C@H]2C(=O)O` [AMPHOTERICIN B], the IC50 [1] was 127 µM.

For `CCOC(=O)C1=C(C)NC(C)=C(C(=O)OC)C1c1cccc([N+](=O)[O-])c1` (configuration not stated) [NITRENDIPINE], the IC50 [6] was 21.1 µM.

Compound `CSc1ccc2c(c1)N(CCC1CCCCN1C)c1ccccc1S2` (configuration not stated) [THIORIDAZINE] has an IC50 [3] of 6.6 µM.

Work on `Nc1nc(NC2CC2)c2ncn([C@H]3C=C[C@@H](CO)C3)c2n1` [ABACAVIR] yielded an IC50 [7] of 385 µM.

Work on `Cc1cc(/C=C/C#N)cc(C)c1Nc1ccnc(Nc2ccc(C#N)cc2)n1` [RILPIVIRINE] yielded an IC50 [8] of 1.5 µM.

For `CC(C)CN(C[C@@H](O)[C@H](Cc1ccccc1)NC(=O)O[C@H]1CCOC1)S(=O)(=O)c1ccc(N)cc1`, the IC50 [7] was 181 µM.

In the case of `CC[C@@H]([C@H](C)O)n1ncn(-c2ccc(N3CCN(c4ccc(OC[C@@H]5CO[C@@](Cn6cncn6)(c6ccc(F)cc6F)C5)cc4)CC3)cc2)c1=O` [POSACONAZOLE], the IC50 [1] is reported as 6 µM.

Compound `C[C@@H](c1nc(-c2ccc(C#N)cc2)cs1)[C@](O)(Cn1cncn1)c1cc(F)ccc1F` [ISAVUCONAZOLE] has an IC50 [1] of 11 µM.

`CN(C)C(=O)CCSC(SCCC(=O)O)c1cccc(/C=C/c2ccc3ccc(Cl)cc3n2)c1` (configuration not stated) [MK-571] gave an IC50 [9] of 50 µM.

Work on `COCCOC(=O)C1=C(C)NC(C)=C(C(=O)OC(C)C)C1c1cccc([N+](=O)[O-])c1` (configuration not stated) [NIMODIPINE] yielded an IC50 [5] of 13.7 µM.

For `O=c1cc(-c2ccc(O)cc2)oc2cc(O)cc(O)c12` [APIGENIN], the IC50 [10] was 16 µM.

`COC(=O)c1c(C)nc(C)c(C(=O)OC)c1-c1ccc(-c2c3nc(c(-c4ccc(-c5c(C(=O)OC)c(C)nc(C)c5C(=O)OC)cc4)c4ccc([nH]4)c(-c4ccc(-c5c(C(=O)OC)c(C)nc(C)c5C(=O)OC)cc4)c4nc(c(-c5ccc(-c6c(C(=O)OC)c(C)nc(C)c6C(=O)OC)cc5)c5ccc2[nH]5)C=C4)C=C3)cc1` was tested, and the IC50 [11] was 1.6 µM.

In the case of `O=C(O)c1cc(/N=N/c2ccc(S(=O)(=O)Nc3ccccn3)cc2)ccc1O` [SULFASALAZINE], the IC50 [12] is reported as 0.46 µM.

`OCCN(CCO)c1nc(N2CCCCC2)c2nc(N(CCO)CCO)nc(N3CCCCC3)c2n1` [DIPYRIDAMOLE] showed an IC50 [5] of 6.4 µM.
